US8889153B2, “Combination of immunomodulator and anti-pathogenic agent” (priority 2008, dated 2014)
Values joined by “and” are separate entries in the source; they are usually repeats but may differ in a detail not shown here. Identical values can stand only once.

Assays:
M. tuberculosis-Erdman = system: M. tuberculosis-Erdman; parameters: species or system Mycobacterium tuberculosis (host: C57BL/6 mice); settings: mouse, in vivo
Plasmodium chabaudi = test: Experimental Plasmodium chabaudi infection, survival and parasitemia; assay type: in vivo, Plasmodium chabaudi (host: C57BL/6 mice); settings: for Survival/Number of animals: 21 days observation
Herpes sp = test: Patients with recurrent herpetic lesions (cutaneous and genital), symptom recurrence; assay type: in vivo, Herpes virus (host: human patients); settings: Acyclovir alone, oral, 3 daily doses of 200 mg, 10 days
Candida sp = settings: 20 HIV/AIDS patients per group, Fluconazole 400 mg/day × 5 days oral, Immunomodulator 10 mg/day × 5 days i.m.
L. monocytogenes [1] = settings: experimental animals; PI0305373-3, U.S. Ser. No. 10/978,683, EPA 0426250.3.2405; cited from earlier work
L. monocytogenes [2] = test: Experimental L. monocytogenes infection, lethal dose, survivors at 30 days; assay type: in vivo, Listeria monocytogenes (host: BALB/c mice); settings: BALB/c mice, n = 10 per group, 2×10^6 L. monocytogenes i.p.; Immunomodulator 100 mg/kg single dose i.p.; Rifampicine 2 mg/kg and Gentamicin 2 mg/kg × 5 days
[3] = system: TH-1 and TH-2 types cytokines (IL-2, IFN-gamma, IL-4, and IL-10); test: Cytokine dosage (sandwich-ELISA, Con-A stimulated spleen culture supernatant) in experimental L. monocytogenes infection; assay type: in vivo, BALB/c mice
HCV subtype I-b = test: Clinical trial in hepatitis C patients, laboratorial parameters; settings: two patients (A and D) of 5; Immunomodulator 25 mg weekly i.m., 12 months; no treatment interruption
[4] = Group D: Chloroquine 5 mg/kg single i.p. dose
[5] = Group E: Chloroquine 2 mg/kg single i.p. dose
[6] = Control (non-infected) BALB/c mice, Immunomodulator 5 mg/kg/day i.p. 7 days
[7] = Infected 48 h (2×10^4 L. monocytogenes i.p.), Immunomodulator 5 mg/kg/day i.p. 7 days prior to inoculation
[8] = Infected 72 h (2×10^4 L. monocytogenes i.p.), Immunomodulator 5 mg/kg/day i.p. 7 days prior to inoculation
[9] = Group G: Immunomodulator 100 mg/kg i.p. single dose

**Q.** What does the source list for `NNC(=O)c1ccncc1` [INH, pyridine-4-carbohydrazide, reference compound]?
**A.** Bacillary load - Lung + Standard Deviation (SD) (M. tuberculosis-Erdman): 3.52 ± 0.65; Bacillary load - Spleen + Standard Deviation (SD) (M. tuberculosis-Erdman): 4.82 ± 0.62

**Q.** With `CCN(CC)CCCC(C)Nc1ccnc2cc(Cl)ccc12` (stereo not drawn) [Chloroquine, N′-(7-chloroquinolin-4-yl)-N,N-diethyl-pentane-1,4-Diamine] as the compound, how does the Survival/Number of animals (Plasmodium chabaudi; Group B: Chloroquine 15 mg/kg single i.p. dose) read?
**A.** Its Survival/Number of animals is 6-6.

**Q.** What about the “Parasitemia (%) ± Standart deviation (SD)” value (Plasmodium chabaudi; Group B: Chloroquine 15 mg/kg single i.p. dose, day 5) of the same compound?
**A.** Its value is 17 ± 0.7 (day 5) %.

**Q.** What about the “Parasitemia (%) ± Standart deviation (SD)” value (Plasmodium chabaudi; Group B: Chloroquine 15 mg/kg single i.p. dose, day 21) of the same compound?
**A.** The value was 8 ± 1.2 (day 21%.

**Q.** What about the “increase in survival rate compared to the control groups” value (Plasmodium chabaudi; Group D: Chloroquine 5 mg/kg) of the same compound?
**A.** The value was 2 days.

**Q.** And the Day of death (Plasmodium chabaudi; [4])?
**A.** Its Day of death is 10 days.

**Q.** And the Survival/Number of animals (Plasmodium chabaudi; [4])?
**A.** The Survival/Number of animals was 0-6.

**Q.** What about the “Parasitemia (%) ± Standart deviation (SD)” value (Plasmodium chabaudi; Group D: Chloroquine 5 mg/kg single i.p. dose, day 5) of the same compound?
**A.** Its value is 65 ± 0.9 (day 5) %.

**Q.** What about the “difference in the survival rate to the control groups” value (Plasmodium chabaudi; Group E: Chloroquine 2 mg/kg) of the same compound?
**A.** Its value is “no significant difference”.

**Q.** And the Day of death (Plasmodium chabaudi; [5])?
**A.** Its Day of death is 8 days.

**Q.** What about the Survival/Number of animals (Plasmodium chabaudi; [5]) of the same compound?
**A.** Its Survival/Number of animals is 0-6.

**Q.** And the “Parasitemia (%) ± Standart deviation (SD)” value (Plasmodium chabaudi; Group E: Chloroquine 2 mg/kg single i.p. dose, day 5)?
**A.** The value was 89 ± 1.3 (day 5) %.

**Q.** With `Nc1nc(=O)c2ncn(COCCO)c2[nH]1` [Acyclovir, 2-amino-9-[(2-hydroxyethoxy)methyl]-3,9-dihydro-6H-purin-6-one] as the compound, how does the “average recurrence period of time of the disease symptoms” value (Herpes sp; first stage, 30 patients) read?
**A.** The value was 2 months.

**Q.** What about the “average recurrence period of symptoms” value (Herpes sp; second stage, 15 patients) of the same compound?
**A.** The value was 2 months.

**Q.** For `OC(Cn1cncn1)(Cn1cncn1)c1ccc(F)cc1F` [Antifungal], which “% Respondents” value (Candida sp) is on record?
**A.** The value was 100%.

**Q.** And the “Symptoms Average recurrence period” value (Candida sp; six months follow-up)?
**A.** Its value is 45 days.

**Q.** With “proteic aggregate of ammonium and magnesium phospholinoleate-palmitoleate anhydride [Immunomodulator]” as the compound, how does the “protection against infection by lethal dose of L. monocytogenes” value (L. monocytogenes [1]) read?
**A.** The value was “partial protection”.

**Q.** And the “% surviving animals - 30 days” value (L. monocytogenes [2])?
**A.** The value was 30%.

**Q.** And the “Number surviving animals - 30 days” value (L. monocytogenes [2])?
**A.** Its value is 3.

**Q.** What about the IFN-γ [3, 6] of the same compound?
**A.** The IFN-γ was 1012 ± 41 pg/mL.

**Q.** What about the Il-2 [3, 6] of the same compound?
**A.** Its Il-2 is 167 ± 11 pg/mL.

**Q.** And the Il-4 [3, 6]?
**A.** Its Il-4 is 63 ± 19 pg/mL.

**Q.** What about the Il-10 [3, 6] of the same compound?
**A.** Its Il-10 is 227 ± 37 pg/mL.

**Q.** And the IFN-γ [3, 7]?
**A.** Its IFN-γ is 1691 ± 62 pg/mL.

**Q.** What about the Il-2 [3, 7] of the same compound?
**A.** The Il-2 was 206 ± 31 pg/mL.

**Q.** And the Il-4 [3, 7]?
**A.** Its Il-4 is 75 ± 18 pg/mL.

**Q.** What about the Il-10 [3, 7] of the same compound?
**A.** Its Il-10 is 224 ± 17 pg/mL.

**Q.** What about the IFN-γ [3, 8] of the same compound?
**A.** The IFN-γ was 1884 ± 70 pg/mL.

**Q.** And the Il-2 [3, 8]?
**A.** The Il-2 was 248 ± 34 pg/mL.

**Q.** What about the Il-4 [3, 8] of the same compound?
**A.** Its Il-4 is 73 ± 11 pg/mL.

**Q.** And the Il-10 [3, 8]?
**A.** Its Il-10 is 221 ± 37 pg/mL.

**Q.** What about the “Bacillary load - Lung + Standard Deviation (SD)” value (M. tuberculosis-Erdman) of the same compound?
**A.** The value was 5.42 ± 0.59 and 4.85 ± 0.46.

**Q.** What about the “Bacillary load - Spleen + Standard Deviation (SD)” value (M. tuberculosis-Erdman) of the same compound?
**A.** Its value is 5.25 ± 0.61 and 4.93 ± 0.47.

**Q.** What about the “tolerance at the site of injection” value (HCV subtype I-b) of the same compound?
**A.** Its value is “mild pain and discomfort at the site of injection”.

**Q.** And the Day of death (Plasmodium chabaudi; Group F: Immunomodulator 5 mg/kg × 5 days)?
**A.** Its Day of death is 11 days.

**Q.** And the Survival/Number of animals (Plasmodium chabaudi; Group F: Immunomodulator 5 mg/kg × 5 days, start 1 day after infection)?
**A.** Its Survival/Number of animals is 0-6.

**Q.** What about the “Parasitemia (%) ± Standart deviation (SD)” value (Plasmodium chabaudi; Group F: Immunomodulator 5 mg/kg × 5 days, day 5) of the same compound?
**A.** The value was 54 ± 0.8 (day 5) %.

**Q.** And the Day of death (Plasmodium chabaudi; [9])?
**A.** Its Day of death is 12 days.

**Q.** And the Survival/Number of animals (Plasmodium chabaudi; [9])?
**A.** The Survival/Number of animals was 0-6.

**Q.** And the “Parasitemia (%) ± Standart deviation (SD)” value (Plasmodium chabaudi; Group G: Immunomodulator 100 mg/kg i.p. single dose, day 5)?
**A.** The value was 52 ± 0.9 (day 5) %.

**Q.** What about the “increase in survival rate in relation to the control animals” value (Plasmodium chabaudi; Groups F and G: Immunomodulator 5 mg/kg × 5 days and 100 mg/kg single dose) of the same compound?
**A.** The value was 3 to 4 days.
